Measured values reported in US20260070945A1, “MACROCYCLIC IMMUNOMODULATORS” (Bristol-Myers Squibb Company, priority 2022, published 2026).
Where a SMILES comes first, the peptide text is derived from it. Bridges are numbered along the chain shown (N, C = ends). [ ]: non-standard residue; d: D form. The star is where a group is joined. ξ: configuration not given here. Phe(4-COOH) = N[C@@H](Cc1ccc(C(=O)O)cc1)C(=O)O; Bip = N[C@@H](Cc1ccc(-c2ccccc2)cc1)C(=O)O; Phe(3-Me) = Cc1cccc(C[C@H](N)C(=O)O)c1; Val(3-OH) = CC(C)(O)[C@H](N)C(=O)O; 4Pal = N[C@@H](Cc1ccncc1)C(=O)O; 3Thi = N[C@@H](Cc1ccsc1)C(=O)O; Cha = N[C@@H](CC1CCCCC1)C(=O)O; Ile(3ξ) = CCC(C)[C@H](N)C(=O)O; Thr(3ξ) = CC(O)[C@H](N)C(=O)O; Carboxymethyl = O=C(O)C*; NMeA = CN[C@@H](C)C(=O)O; Aun = NCCCCCCCCCCC(=O)O; Dab = NCC[C@H](N)C(=O)O; AEEA = NCCOCCOCC(=O)O

What follows are molecules tested against T1, PD-1/PD-L1 interaction (PE-labeled human PD-L1-Ig binding to Jurkat cell line over-expressing human PD-1) (Homo sapiens, UniProt Q15116) (assay: Jurkat-PD-1 Cell Binding High-Content Screening Assay (CBA)). Settings: PE-labeled PD-L1-Ig 20 nM final, Jurkat-hPD-1 cells; read-out: Jurkat HPD1 PDL1 IC50.
T1 construct: expressed in transfected cells; host or cells: Jurkat
How it was run: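 In this imaging assay, cells in 10% FCS medium see compound for 2 h at 37 °C and then labeled ligand at 20 nM final for 1 h. Paraformaldehyde fixation, Hoechst 33342 staining and dPBS washes precede image capture.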

T1 sequence (Q15116 25-288): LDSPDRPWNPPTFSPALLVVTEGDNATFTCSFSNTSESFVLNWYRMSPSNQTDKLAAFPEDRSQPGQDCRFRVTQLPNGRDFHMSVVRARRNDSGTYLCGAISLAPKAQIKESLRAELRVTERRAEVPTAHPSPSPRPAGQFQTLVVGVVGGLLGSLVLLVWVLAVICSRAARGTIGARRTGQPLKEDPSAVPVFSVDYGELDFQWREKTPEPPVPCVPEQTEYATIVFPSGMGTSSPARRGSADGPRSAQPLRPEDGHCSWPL

IC50 [nM] | Structure (SMILES)
253 | Cc1cccc(C[C@@H]2NC(=O)[C@H](CC(=O)O)NC(=O)[C@H](Cc3ccc(OCC(=O)O)cc3)NC(=O)[C@H](Cc3ccncc3)NC(=O)CSC[C@@H](C(=O)N[C@@H](CCN)C(=O)NCCOCCOCC(=O)NCCOCCOCC(=O)NCCCCCCCCCCC(=O)O)NC(=O)[C@H](CCC(=O)O)NC(=O)[C@H](C(C)C)NC(=O)[C@H](CC3CCCCC3)NC(=O)[C@H](CCN)NC(=O)[C@@H](CC(C)C)NC(=O)[C@H](C)N(C)C(=O)[C@H](Cc3ccc(C(=O)O)cc3)NC(=O)[C@H](Cc3ccc(-c4ccccc4)cc3)NC(=O)[C@H](Cc3ccc(C(=O)O)cc3)NC2=O)c1 [Example 2501] ({CH2CO}-[4Pal]Y(Carboxymethyl)D[Phe(3-Me)][Phe(4-COOH)][Bip][Phe(4-COOH)][NMeA][dL][Dab][Cha]VEC[Dab][AEEA][AEEA][Aun]-OH; thioether N-14)
148 | CCC(C)[C@@H]1NC(=O)[C@H](Cc2ccc(-c3ccccc3)cc2)NC(=O)[C@H](CC(C)C)NC(=O)[C@H](Cc2c[nH]c3ccccc23)NC(=O)[C@H](CC(=O)O)NC(=O)[C@H](Cc2ccc(OCC(=O)O)cc2)NC(=O)[C@H](Cc2ccncc2)NC(=O)CSC[C@@H](C(=O)N[C@@H](CCN)C(=O)NCCOCCOCC(=O)NCCCCCCCCCCC(=O)O)NC(=O)[C@H](CO)NC(=O)[C@H](C(C)(C)O)NC(=O)[C@H](CC2CCCCC2)NC(=O)[C@H](CCN)NC(=O)[C@@H](CC(C)C)NC(=O)[C@H](C)N(C)C1=O (stereo partly drawn) [Example 2502] ({CH2CO}-[4Pal]Y(Carboxymethyl)DWL[Bip][Ile(3ξ)][NMeA][dL][Dab][Cha][Val(3-OH)]SC[Dab][AEEA][Aun]-OH; thioether N-14)
12.2 | CC(=O)NCCCC[C@@H]1NC(=O)[C@H](C(C)C)NC(=O)[C@H](CC2CCCCC2)NC(=O)[C@H](CCN)NC(=O)[C@@H](CC(C)C)NC(=O)[C@H](C)N(C)C(=O)[C@H](CCC(N)=O)NC(=O)[C@H](Cc2ccc(-c3ccccc3)cc2)NC(=O)[C@H](CC(C)C)NC(=O)[C@H](Cc2c[nH]c3ccccc23)NC(=O)[C@H](CC(=O)O)NC(=O)[C@H](Cc2ccc(OCC(=O)O)cc2)NC(=O)[C@H](Cc2ccsc2)NC(=O)CSC[C@@H](C(=O)N[C@@H](CCN)C(=O)NCCOCCOCC(=O)NCCCCCCCCCCC(=O)O)NC1=O [Example 2503] ({CH2CO}-[3Thi]Y(Carboxymethyl)DWL[Bip]Q[NMeA][dL][Dab][Cha]VK(Ac)C[Dab][AEEA][Aun]-OH; thioether N-14)
13.2 | CC(C)C[C@@H]1NC(=O)[C@H](Cc2c[nH]c3ccccc23)NC(=O)[C@H](CC(=O)O)NC(=O)[C@H](Cc2ccc(OCC(=O)O)cc2)NC(=O)[C@H](Cc2ccsc2)NC(=O)CSC[C@@H](C(=O)N[C@@H](CCN)C(=O)NCCOCCOCC(=O)NCCCCCCCCCCC(=O)O)NC(=O)[C@H](CCC(=O)O)NC(=O)[C@H](C(C)(C)O)NC(=O)[C@H](CC2CCCCC2)NC(=O)[C@H](CCN)NC(=O)[C@@H](CC(C)C)NC(=O)[C@H](C)N(C)C(=O)[C@H](CCC(N)=O)NC(=O)[C@H](Cc2ccc(-c3ccccc3)cc2)NC1=O [Example 2504] ({CH2CO}-[3Thi]Y(Carboxymethyl)DWL[Bip]Q[NMeA][dL][Dab][Cha][Val(3-OH)]EC[Dab][AEEA][Aun]-OH; thioether N-14)
12.9 | Cc1cccc(C[C@@H]2NC(=O)[C@H](CC(=O)O)NC(=O)[C@H](Cc3ccc(C(=O)O)cc3)NC(=O)[C@H](Cc3ccsc3)NC(=O)CSC[C@@H](C(=O)N[C@@H](CCN)C(=O)NCCOCCOCC(=O)NCCCCCCCCCCC(=O)O)NC(=O)[C@H](CCC(=O)O)NC(=O)[C@H](C(C)(C)O)NC(=O)[C@H](CC3CCCCC3)NC(=O)[C@H](CCN)NC(=O)[C@@H](CC(C)C)NC(=O)[C@H](C)N(C)C(=O)[C@H](Cc3ccc(OCC(=O)O)cc3)NC(=O)[C@H](Cc3ccc(-c4ccccc4)cc3)NC(=O)[C@H](Cc3ccc(OCC(=O)O)cc3)NC2=O)c1 [Example 2505] ({CH2CO}-[3Thi][Phe(4-COOH)]D[Phe(3-Me)]Y(Carboxymethyl)[Bip]Y(Carboxymethyl)[NMeA][dL][Dab][Cha][Val(3-OH)]EC[Dab][AEEA][Aun]-OH; thioether N-14)
10.3 | Cc1cccc(C[C@@H]2NC(=O)[C@H](CC(=O)O)NC(=O)[C@H](Cc3ccc(C(=O)O)cc3)NC(=O)[C@H](Cc3ccsc3)NC(=O)CSC[C@@H](C(=O)N[C@@H](CCN)C(=O)NCCOCCOCC(=O)NCCCCCCCCCCC(=O)O)NC(=O)[C@H](CCC(=O)O)NC(=O)[C@H](C(C)(C)O)NC(=O)[C@H](CC3CCCCC3)NC(=O)[C@H](CCN)NC(=O)[C@@H](CC(C)C)NC(=O)[C@H](C)N(C)C(=O)[C@H](Cc3ccc(C(=O)O)cc3)NC(=O)[C@H](Cc3ccc(-c4ccccc4)cc3)NC(=O)[C@H](Cc3ccc(C(=O)O)cc3)NC2=O)c1 [Example 2506] ({CH2CO}-[3Thi][Phe(4-COOH)]D[Phe(3-Me)][Phe(4-COOH)][Bip][Phe(4-COOH)][NMeA][dL][Dab][Cha][Val(3-OH)]EC[Dab][AEEA][Aun]-OH; thioether N-14)
393 | Cc1cccc(C[C@@H]2NC(=O)[C@H](CC(=O)O)NC(=O)[C@H](Cc3ccc(OCC(=O)O)cc3)NC(=O)[C@H](C(C)O)NC(=O)CSC[C@@H](C(=O)N[C@@H](CO)C(=O)NCCOCCOCC(=O)NCCCCCCCCCCC(=O)O)NC(=O)[C@H](CCC(=O)O)NC(=O)[C@H](C(C)(C)O)NC(=O)[C@H](CC3CCCCC3)NC(=O)[C@H](CCN)NC(=O)[C@@H](CC(C)C)NC(=O)[C@H](C)N(C)C(=O)[C@H](Cc3ccc(OCC(=O)O)cc3)NC(=O)[C@H](Cc3ccc(-c4ccccc4)cc3)NC(=O)[C@H](Cc3ccc(OCC(=O)O)cc3)NC2=O)c1 (stereo partly drawn) [Example 2507] ({CH2CO}-[Thr(3ξ)]Y(Carboxymethyl)D[Phe(3-Me)]Y(Carboxymethyl)[Bip]Y(Carboxymethyl)[NMeA][dL][Dab][Cha][Val(3-OH)]ECS[AEEA][Aun]-OH; thioether N-14)
40.6 | Cc1cccc(C[C@@H]2NC(=O)[C@H](CC(=O)O)NC(=O)[C@H](Cc3ccc(OCC(=O)O)cc3)NC(=O)[C@H](C(C)O)NC(=O)CSC[C@@H](C(=O)N[C@@H](CCN)C(=O)NCCOCCOCC(=O)NCCCCCCCCCCC(=O)O)NC(=O)[C@H](CCC(=O)O)NC(=O)[C@H](C(C)(C)O)NC(=O)[C@H](CC3CCCCC3)NC(=O)[C@H](CCN)NC(=O)[C@@H](CC(C)C)NC(=O)[C@H](C)N(C)C(=O)[C@H](Cc3ccc(OCC(=O)O)cc3)NC(=O)[C@H](Cc3ccc(-c4ccccc4)cc3)NC(=O)[C@H](Cc3ccc(OCC(=O)O)cc3)NC2=O)c1 (stereo partly drawn) [Example 2508] ({CH2CO}-[Thr(3ξ)]Y(Carboxymethyl)D[Phe(3-Me)]Y(Carboxymethyl)[Bip]Y(Carboxymethyl)[NMeA][dL][Dab][Cha][Val(3-OH)]EC[Dab][AEEA][Aun]-OH; thioether N-14)
13 | CCC(C)[C@@H]1NC(=O)[C@H](Cc2ccc(-c3ccccc3)cc2)NC(=O)[C@H](CC(C)C)NC(=O)[C@H](Cc2c[nH]c3ccccc23)NC(=O)[C@H](CC(=O)O)NC(=O)[C@H](Cc2ccc(OCC(=O)O)cc2)NC(=O)[C@H](C(C)O)NC(=O)CSC[C@@H](C(=O)N[C@@H](CCN)C(=O)NCCOCCOCC(=O)NCCCCCCCCCCC(=O)O)NC(=O)[C@H](CCC(=O)O)NC(=O)[C@H](C(C)(C)O)NC(=O)[C@H](CC2CCCCC2)NC(=O)[C@H](CCN)NC(=O)[C@@H](CC(C)C)NC(=O)[C@H](C)N(C)C1=O (stereo partly drawn) [Example 2509] ({CH2CO}-[Thr(3ξ)]Y(Carboxymethyl)DWL[Bip][Ile(3ξ)][NMeA][dL][Dab][Cha][Val(3-OH)]EC[Dab][AEEA][Aun]-OH; thioether N-14)
18.1 | CCC(C)[C@@H]1NC(=O)[C@H](Cc2ccc(-c3ccccc3)cc2)NC(=O)[C@H](CC(C)C)NC(=O)[C@H](Cc2c[nH]c3ccccc23)NC(=O)[C@H](CC(=O)O)NC(=O)[C@H](Cc2ccc(OCC(=O)O)cc2)NC(=O)[C@H](Cc2ccsc2)NC(=O)CSC[C@@H](C(=O)N[C@@H](CCN)C(=O)NCCOCCOCC(=O)NCCCCCCCCCCC(=O)O)NC(=O)[C@H](CCC(=O)O)NC(=O)[C@H](C(C)(C)O)NC(=O)[C@H](CC2CCCCC2)NC(=O)[C@H](CCN)NC(=O)[C@@H](CC(C)C)NC(=O)[C@H](C)N(C)C1=O (stereo partly drawn) [Example 2510] ({CH2CO}-[3Thi]Y(Carboxymethyl)DWL[Bip][Ile(3ξ)][NMeA][dL][Dab][Cha][Val(3-OH)]EC[Dab][AEEA][Aun]-OH; thioether N-14)
16.1 | Cc1cccc(C[C@@H]2NC(=O)[C@H](CC(=O)O)NC(=O)[C@H](Cc3ccc(OCC(=O)O)cc3)NC(=O)[C@H](C(C)C)NC(=O)CSC[C@@H](C(=O)N[C@@H](CCN)C(=O)NCCOCCOCC(=O)NCCCCCCCCCCC(=O)O)NC(=O)[C@H](CCC(=O)O)NC(=O)[C@H](C(C)(C)O)NC(=O)[C@H](CC3CCCCC3)NC(=O)[C@H](CCN)NC(=O)[C@@H](CC(C)C)NC(=O)[C@H](C)N(C)C(=O)[C@H](Cc3ccc(C(=O)O)cc3)NC(=O)[C@H](Cc3ccc(-c4ccccc4)cc3)NC(=O)[C@H](Cc3ccc(C(=O)O)cc3)NC2=O)c1 [Example 2511] ({CH2CO}-VY(Carboxymethyl)D[Phe(3-Me)][Phe(4-COOH)][Bip][Phe(4-COOH)][NMeA][dL][Dab][Cha][Val(3-OH)]EC[Dab][AEEA][Aun]-OH; thioether N-14)
14.4 | Cc1cccc(C[C@@H]2NC(=O)[C@H](CC(=O)O)NC(=O)[C@H](Cc3ccc(OCC(=O)O)cc3)NC(=O)[C@H](Cc3ccsc3)NC(=O)CSC[C@@H](C(=O)N[C@@H](CCN)C(=O)NCCCCCCCCCCC(=O)O)NC(=O)[C@H](CO)NC(=O)[C@H](C(C)(C)O)NC(=O)[C@H](CC3CCCCC3)NC(=O)[C@H](CCN)NC(=O)[C@@H](CC(C)C)NC(=O)[C@H](C)N(C)C(=O)[C@H](Cc3ccc(C(=O)O)cc3)NC(=O)[C@H](Cc3ccc(-c4ccccc4)cc3)NC(=O)[C@H](Cc3ccc(C(=O)O)cc3)NC2=O)c1 [Example 2513] ({CH2CO}-[3Thi]Y(Carboxymethyl)D[Phe(3-Me)][Phe(4-COOH)][Bip][Phe(4-COOH)][NMeA][dL][Dab][Cha][Val(3-OH)]SC[Dab][Aun]-OH; thioether N-14)
